# Test results as given in US20260167637A1, “NLRP3 INFLAMMASOME INHIBITOR AND USE THEREOF” (TransThera Sciences (Nanjing), Inc., priority 2022, published 2026).
# Like-named read-outs stand apart in the source and are kept apart here.
# Experiments:
# [1] = Stability in rat liver microsomes; assay type: in vitro ADME; details: rat liver microsomes 0.5 mg protein/mL, 1 μM test substance, β-NADPH 1 mM, 37° C.; for half-life at 1 μM: read-out: Rat t1/2
# Protocol: (§1) Experimental Example 2: Evaluation of Stability of Compounds Disclosed Herein in Liver Microsomes
# (§2) Composition of experimental incubation system:
# (§3) An appropriate amount of the compound was precisely weighed out and dissolved in DMSO to prepare a 10.0 mM stock solution. The 10.0 mM stock solution was diluted with DMSO to 1.0 mM, and then diluted with phosphate buffer (containing 3 mM MgCl2) to prepare a 10 μM test substance working solution for later use (DMSO content in the reaction system: 0.1%).
# (§4) An appropriate amount of β-NADPH was precisely weighed out and then prepared into a 5 mM β-NADPH working solution using phosphate buffer (containing 3 mM MgCl2) for later use.
# (§5) (1) The liver microsomes (20 mg protein/mL) were taken out from a −80° C. freezer and pre-incubated on a 37° C. water bath thermostatic oscillator for 3 min to thaw for later use.
# (§6) (2) A mixed solution of the incubation system (without β-NADPH) was prepared according to “composition of experimental incubation system” described above, and pre-incubated on a 37° C. water bath thermostatic oscillator for 2 min.
# (§7) (3) Control group (without β-NADPH): 10 μL of phosphate buffer (containing 3 mM MgCl2) and 40 μL of the mixed solution of the incubation system in step (2) were taken and mixed, and the mixture was vortexed for 30 s and mixed well, resulting in a total reaction volume of 50 μL; the sample was duplicated. The mixture was placed on a 37° C. water bath thermostatic oscillator for incubation, and timing was started, with termination time points set at 0 min and 60 min.
# (§8) (4) Sample group: 10 μL of the β-NADPH solution (5 mM) and 40 μL of the mixed solution in step (2) were taken and mixed, resulting in a total reaction volume of 50 μL; the mixture was vortexed for 30 s and mixed well; the sample was duplicated. The mixture was placed on a 37° C. water bath thermostatic oscillator for incubation, and timing was started, with termination time points set at 0 min, 5 min, 10 min, 20 min, 30 min, and 60 min.
# (§9) (5) The mixture was vortexed for 5 min and then centrifuged at 4000 rpm for 10 min.
# (§10) (6) 50 μL of the supernatant was taken and added to 150 μL of water, and the resulting mixture was vortexed and mixed well before LC/MS/MS analysis.
# (§11) The half-life (t1/2) and clearance rate (CL) were calculated using the following first-order kinetic formula
# (§12) Notes: k denotes the slope of the logarithm of the remaining amount of a compound vs. time, and Vd denotes apparent volume of distribution.
# [2] = Stability in canine liver microsomes; assay type: in vitro ADME; details: canine liver microsomes 0.5 mg protein/mL, 1 μM test substance, β-NADPH 1 mM, 37° C.; for microsomal CLint at 1 μM / half-life at 1 μM: dog; for half-life at 1 μM: read-out: Canine t1/2
# Protocol: as §1, §2, §3, §4, §5, §6, §7, §8, §9, §10, §11, §12
# THP-1 cell NLRP3 = biological target: T1, THP-1 cell NLRP3 (Homo sapiens, UniProt Q96P20); assay: Inhibitory activity against cell NLRP3 inflammasomes in THP-1 cells (LPS + nigericin, ELISA of supernatant); assay type: cell-based; details: PMA-differentiated THP-1 cells, LPS 500 ng/mL 3 h, compound 1 h, nigericin 30 min; human IL-10 (so in the source) in supernatant by ELISA
# T1 construct: endogenous in cells; host or cells: THP-1 cells, PMA-differentiated, stimulated with LPS and nigericin
# T1 sequence (Q96P20 whole entry): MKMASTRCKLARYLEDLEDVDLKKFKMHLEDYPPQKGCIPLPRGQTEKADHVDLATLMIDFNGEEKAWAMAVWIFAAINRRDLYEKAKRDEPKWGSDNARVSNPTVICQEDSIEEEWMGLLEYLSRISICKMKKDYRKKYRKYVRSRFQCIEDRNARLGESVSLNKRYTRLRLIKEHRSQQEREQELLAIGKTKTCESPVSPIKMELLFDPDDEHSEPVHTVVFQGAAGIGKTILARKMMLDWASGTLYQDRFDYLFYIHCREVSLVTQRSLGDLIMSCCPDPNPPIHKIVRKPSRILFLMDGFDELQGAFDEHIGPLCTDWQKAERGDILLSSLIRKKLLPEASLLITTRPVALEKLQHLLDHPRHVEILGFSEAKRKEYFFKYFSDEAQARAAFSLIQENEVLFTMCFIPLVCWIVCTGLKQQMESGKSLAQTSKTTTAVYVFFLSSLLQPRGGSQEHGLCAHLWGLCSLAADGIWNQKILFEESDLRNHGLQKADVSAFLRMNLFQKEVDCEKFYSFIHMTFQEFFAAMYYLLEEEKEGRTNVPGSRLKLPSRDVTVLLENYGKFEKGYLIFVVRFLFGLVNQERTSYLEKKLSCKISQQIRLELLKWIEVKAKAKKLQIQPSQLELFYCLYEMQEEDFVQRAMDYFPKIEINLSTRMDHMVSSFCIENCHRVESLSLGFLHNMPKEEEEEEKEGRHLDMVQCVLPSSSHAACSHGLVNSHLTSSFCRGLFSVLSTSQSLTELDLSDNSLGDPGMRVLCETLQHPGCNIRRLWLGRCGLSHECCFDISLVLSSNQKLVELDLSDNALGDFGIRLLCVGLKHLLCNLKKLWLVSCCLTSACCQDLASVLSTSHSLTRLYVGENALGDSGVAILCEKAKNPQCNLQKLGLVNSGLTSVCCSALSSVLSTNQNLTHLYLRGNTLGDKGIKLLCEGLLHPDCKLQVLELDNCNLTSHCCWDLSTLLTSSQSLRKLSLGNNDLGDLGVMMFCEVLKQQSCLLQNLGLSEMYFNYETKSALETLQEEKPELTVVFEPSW
# Protocol: Experimental Example 1: Assay for Inhibitory Activity of Compounds Disclosed Herein Against Cell NLRP3 Inflammasomes
# Test substances: The compounds of the present disclosure, prepared according to the methods described in the examples.
# THP-1 is an immortalized human […] cell line.
# Instrument: microplate reader (made by PE)
# Assay Method: 1. THP-1 cells were cultured in 1640 complete medium (500 mL of 1640+56 mL of FBS+560 μL of 1000×P/S+2 μL of mercaptoethanol), and cells at passages 3-20 were used.
# 2. Culture plate coating: 100 μL of polylysine solution was added to a 96-well cell culture plate. After 30 min of incubation at 37° C., the solution was discarded, and the plate was washed with PBS twice for later use.
# 3. Induction of THP-1 differentiation: THP-1 cells were resuspended in an appropriate amount of complete medium containing 10 ng/mL PMA to form a cell suspension with a density of 5×10^5 cells/mL. The suspension was added to the 96-well plate at 100 μL/well, and the plate was incubated overnight in a 37° C. carbon dioxide cell incubator for 16 h.
# 4. Stimulation of THP-1: • a. Serum-free THP-1 culture medium containing LPS was added, with the final concentration being 500 ng/mL. The plate was incubated in a 37° C. carbon dioxide cell incubator for 3 h. • b. Mother liquors of the compounds to be tested with gradient concentrations were prepared with DMSO, added to the cells, and well mixed. Dilution was finally performed in a 1:1000 ratio. The plate was incubated in a 37° C. carbon dioxide cell incubator for 1 h. • c. Nigericin was added to each well, with the final concentration being […]. The plate was incubated in a carbon dioxide cell incubator at 37° C. for 30 min. • d. The medium in the wells was transferred to a new culture plate, and after 5 min of centrifugation at 3000 rpm, the supernatant was transferred to a new 96-well plate. • e. The content of human […] in the collected cell culture supernatant samples was determined with a commercial ELISA kit by following the instructions.
# [3] = Pharmacokinetic study in mice; assay type: in vivo, female C57BL/6J mice; details: female, C57BL/6J, mouse, plasma
# Protocol: (§13) The compounds were prepared into solutions using a mixed vehicle composed of 5% dimethyl sulfoxide, 20% (30% solutol), and 75% normal saline. The compound solutions were intragastrically administered to female C57BL/6J mice at a dose of 10 mg/kg, and the blood collection time points were: 15 min, 30 min, 1 h, 2 h, 4 h, 6 h, 8 h, and 24 h.
# as §13, with “intravenously injected into” for “intragastrically administered to”, “5” for “10”, “were: 5 min,” for “were:”
# The samples to be tested were taken out from a −80° C. freezer, naturally thawed at room temperature, and then vortexed for 5 min.
# Plasma samples of 10 μL from different individuals were accurately pipetted into 1.5 mL centrifuge tubes.
# 900 μL of a 100 ng/mL internal standard working solution (a solution of tolbutamide in acetonitrile) was added, and the mixture was well mixed.
# After 5 min of vortexing, centrifugation was performed at 12,000 rpm for 5 min.
# 50 μL of the supernatant was accurately pipetted into a 96-well plate to which water was added in advance at 150 μL/well.
# After 5 min of vortexing, LC-MS/MS analysis was performed.
# The results of the test substance concentrations were output by Analyst 1.6.3 of AB Sciex.
# Parameters such as mean, standard deviation, and coefficient of variation (excluding those output directly by Analyst 1.6.3) were calculated using Microsoft Excel. PK parameters were calculated using WinNonlin Phenoix 8.2 software NCA (Tmax was a median).
Compound,microsomal CLint at 1 μM [1] [µL/min/mg],half-life at 1 μM [1] [h],microsomal CLint at 1 μM [2] [µL/min/mg],half-life at 1 μM [2] [h],IC50 (THP-1 cell NLRP3) [nM],other results
"C#Cc1ccc(-c2nnc(N[C@@H]3CCCN(CC)C3)c(=O)n2C)c(O)c1 [Compound 93, (R)-6-((1-ethylpiperidin-3-yl)amino)-3-(4-ethynyl-2-hydroxyphenyl)-4-methyl-1,2,4-triazin-5(4H)-one]",5.6,4.13,5,4.62,1.4,
"[2H]C([2H])([2H])N1CCC[C@@H](Nc2nnc(-c3ccc(C#C)cc3O)n(C)c2=O)C1 [Compound 88, (R)-3-(4-ethynyl-2-hydroxyphenyl)-4-methyl-6-((1-(methyl-d3)piperidin-3-yl)amino)-1,2,4-triazin-5(4H)-one]",2,11.6,1.6,14.4,1.2,
"CC#Cc1ccc(-c2nnc(N[C@@H]3CCCN(CCO)C3)cc2C2CC2)c(O)c1 [Compound 44, (R)-2-(4-cyclopropyl-6-((1-(2-hydroxyethyl)piperidin-3-yl)amino)pyridazin-3-yl)-5-(prop-1-yn-1-yl)phenol]",,,,,3.6,"AUC(0-t) ([3]; iv 5 mg/kg, read-out: AUClast iv (0-24 h)): 8960 ng·h/mL; clearance ([3]; iv 5 mg/kg, read-out: Cl—obs iv (clearance rate) (converted)): 9.18 mL/min/kg; Vd ([3]; iv 5 mg/kg, read-out: Vss iv (distribution volume)): 2.76 L/kg; half-life ([3]; iv 5 mg/kg, read-out: tz1/2 iv (terminal half-life) (converted)): 3.95 h; bioavailability ([3]; po 10 mg/kg vs iv 5 mg/kg, read-out: F% (absolute bioavailability)): 69.1%; Tmax ([3]; po 10 mg/kg, median, read-out: Tmax po (time to peak plasma concentration)): 0.5 h; AUC(0-t) ([3]; po 10 mg/kg, read-out: AUClast po (0-24 h)): 12400 ng·h/mL; Cmax ([3]; po 10 mg/kg, read-out: Cmax po (peak concentration)): 1710 ng/mL; half-life ([3]; po 10 mg/kg, read-out: tz1/2 po (terminal half-life) (converted)): 4.05 h"
"C#Cc1ccc(-c2nnc(N[C@@H]3CCCNC3)cc2C2CC2)c(O)c1 [Compound 149, (R)-2-(4-cyclopropyl-6-(piperidin-3-ylamino)pyridazin-3-yl)-5-ethynylphenol]",,,,,0.5,Rat t1/2 [1]: →∞; Canine t1/2 [2]: →∞
"C#Cc1ccc(-c2nnc(N[C@@H]3CCCN(CCO)C3)nc2C)c(O)c1 [Compound 99, (R)-5-ethynyl-2-(3-((1-(2-hydroxyethyl)piperidin-3-yl)amino)-5-methyl-1,2,4-triazin-6-yl)phenol]",3.2,7.22,6.6,3.5,0.7,
"C#Cc1ccc(-c2nnc(N[C@@H]3CCCC[C@H]3O)cc2C)c(O)c1 [Compound 83, 5-ethynyl-2-(6-(((1R,2R)-2-hydroxycyclohexyl)amino)-4-methylpyridazin-3-yl)phenol]",10,2.32,3.8,6.08,6.1,

# Further lines, with some results ahead:
microsomal CLint at 1 μM [1] [µL/min/mg],half-life at 1 μM [1] [h],microsomal CLint at 1 μM [2] [µL/min/mg],half-life at 1 μM [2] [h],IC50 (THP-1 cell NLRP3) [nM],Compound,other results
8,2.88,6.2,3.73,0.2,"C#Cc1ccc(-c2nnc(N[C@@H]3CCCN(CC)C3)cc2C)c(O)c1 [Compound 89, (R)-2-(6-((1-ethylpiperidin-3-yl)amino)-4-methylpyridazin-3-yl)-5-ethynylphenol]",
7.8,2.97,6.6,3.5,0.3,"[2H]C([2H])([2H])N1CCC[C@@H](Nc2nnc(-c3ccc(C#C)cc3O)c(C)n2)C1 [Compound 86, (R)-5-ethynyl-2-(5-methyl-3-((1-(methyl-d3)piperidin-3-yl)amino)-1,2,4-triazin-6-yl)phenol]",
20.2,1.14,3.6,6.42,0.3,"C#Cc1ccc(-c2nnc(N[C@@H]3CCCN(C)C3)cc2C(F)F)c(O)c1 [Compound 115, (R)-2-(4-Difluoromethyl-6-((1-methylpiperidin-3-yl)amino)pyridazin-3-yl)-5-ethynylphenol]",
10.4,2.22,8,2.88,1.1,"C#Cc1ccc(-c2nnc(N[C@@H]3CCCN(C)C3)cc2C2CCC2)c(O)c1 [Compound 82, (R)-5-ethynyl-2-(4-cyclobutyl-6-((1-methylpiperidin-3-yl)amino)pyridazin-3-yl)phenol]",
0.4,57.8,1,23.1,1.3,"C#Cc1ccc(-c2nnc(N[C@@H]3CCCN(C)C3)cc2C(F)(F)F)c(O)c1 [Compound 114, (R)-5-Ethynyl-2-(4-trifluoromethyl-6-((1-methylpiperidin-3-yl)amino)pyridazin-3-yl)phenol]",
